Common to all, as to assay type: cell-based
For one experiment, the target named is T1, KRAS (Homo sapiens, UniProt P01116).
T1 construct: endogenous in cells; host or cells: KE39 (KRAS amplified) cells
In words: KRASamp MSD assay. To be noted: KE39 (KRAS amplified) cells, treated with test compounds for 24 hr, MSD readout of KRAS degradation. In outline: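 Degradation DC50 derived by curve fitting, with KRAS levels quantified by MSD electrochemiluminescence (capture/detection antibodies, recombinant WT KRAS standard). Lysates prepared from KE39 cells (KRAS amplified) exposed to test compounds for 24 hr.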

The target in the next experiment is T2, KRAS G12V (Homo sapiens, UniProt P01116, G12V).
T2 construct: SW620-KRAS (G12V)-HiBit-KI cell (Pharmaron); host or cells: SW620-KRAS (G12V)-HiBit-KI cells (HiBiT knock-in at the endogenous KRAS locus)
T2 sequence (P01116 1-188 isoform P01116-2 G12V): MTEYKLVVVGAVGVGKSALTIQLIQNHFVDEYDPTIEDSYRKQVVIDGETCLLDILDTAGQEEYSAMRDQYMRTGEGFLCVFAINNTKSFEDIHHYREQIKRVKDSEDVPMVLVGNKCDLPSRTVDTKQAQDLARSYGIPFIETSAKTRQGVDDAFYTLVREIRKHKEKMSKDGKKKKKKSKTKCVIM
As to the kind of experiment: KRAS G12V HiBit assay. The settings on record: SW620-KRAS (G12V)-HiBit-KI cells, compound treatment for 24 hours. The essentials: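 Luminescence from lytic Nano-Glo HiBiT detection with LgBiT read KRAS G12V levels after 24 h compound exposure. Dilutions were 10-point, 3-fold, from a 0.3 mM DMSO stock. Degradation activity was normalised to cells given 0.1% DMSO alone.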

A further experiment addresses T3, KRAS G12D (Homo sapiens, UniProt P01116, G12D).
T3 construct: AsPc-1-KRAS (G12D)-HiBit-KI cell (Pharmaron); host or cells: AsPc-1-KRAS (G12D)-HiBit-KI cells (HiBiT knock-in at the endogenous KRAS locus)
In words: KRAS G12D HiBit assay. To be noted: AsPc-1-KRAS (G12D)-HiBit-KI cell, compound treatment for 24 hours, absolute DC50. In outline: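 HiBiT luminescence, detected by adding lytic buffer, substrate and LgBiT protein, served as the KRAS G12D read-out. Compounds, serially diluted 3-fold over 10 points from 0.3 mM DMSO stock, were on cells for 24 h; percent inhibition normalized to cells given 0.1% DMSO only.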

T3 sequence (P01116 1-188 isoform P01116-2 G12D): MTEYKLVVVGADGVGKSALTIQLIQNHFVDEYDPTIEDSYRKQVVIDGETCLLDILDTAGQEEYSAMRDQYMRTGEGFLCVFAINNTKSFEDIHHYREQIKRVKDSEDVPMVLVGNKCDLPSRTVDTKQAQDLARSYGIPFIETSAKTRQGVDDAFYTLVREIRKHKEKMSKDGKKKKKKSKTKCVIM
T1 sequence (P01116 1-188 isoform P01116-2): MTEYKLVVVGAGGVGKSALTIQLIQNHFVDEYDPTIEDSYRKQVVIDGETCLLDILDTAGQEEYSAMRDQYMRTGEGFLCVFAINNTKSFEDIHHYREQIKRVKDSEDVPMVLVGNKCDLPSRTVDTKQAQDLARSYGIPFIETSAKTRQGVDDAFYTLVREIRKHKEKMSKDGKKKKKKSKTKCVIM

In the case of `CCc1c(F)ccc2cc(O)cc(-c3ncc4c(N5CCC[C@@](C)(O)C5)nc(OC[C@@]56CCCN5[C@H](COC(=O)N5CC7(CC(N8CCC(c9ccc%10c(c9)n(C)c(=O)n%10C9CCC(=O)NC9=O)CC8)C7)C5)CC6)nc4c3F)c12` (stereo partly drawn) [Compound 416, ((3S,7aS)-7a-(((7-(8-ethyl-7-fluoro-3-hydroxynaphthalen-1-yl)-8-fluoro-4-((R)-3-hydroxy-3-methylpiperidin-1-yl)pyrido[4,3-d]pyrimidin-2-yl)oxy)methyl)hexahydro-1H-pyrrolizin-3-yl)methyl 6-(4-(1-(2,6-dioxopiperidin-3-yl)-3-methyl-2-oxo-2,3-dihydro-1H-benzo[d]imidazol-5-yl)piperidin-1-yl)-2-azaspiro[3.3]heptane-2-carboxylate], the results for the DC50 on KRAS, at KRAS G12V (class symbols) and at KRAS G12D (class symbols) were < 1 nM, < 10 nM and < 100 nM, respectively.

For the molecule `CCc1c(F)ccc2cc(O)cc(-c3ncc4c(N5CCC[C@@](C)(O)C5)nc(OC[C@@]56CCCN5[C@H](COC(=O)N5CCC(C7(N8CCC(c9ccc%10c(c9)n(C)c(=O)n%10C9CCC(=O)NC9=O)CC8)CC7)CC5)CC6)nc4c3F)c12` (stereo partly drawn) [Compound 399, ((3S,7aS)-7a-(((7-(8-Ethyl-7-fluoro-3-hydroxynaphthalen-1-yl)-8-fluoro-4-((R)-3-hydroxy-3-methylpiperidin-1-yl)pyrido[4,3-d]pyrimidin-2-yl)oxy)methyl)hexahydro-1H-pyrrolizin-3-yl)methyl 4-(1-(4-(1-(2,6-dioxopiperidin-3-yl)-3-methyl-2-oxo-2,3-dihydro-1H-benzo[d]imidazol-5-yl)piperidin-1-yl)cyclopropyl) piperidine-1-carboxylate], the DC50 at KRAS was < 1 nM; on KRAS G12V (class symbols) it was < 10 nM; at KRAS G12D (class symbols) it was < 100 nM.

On to `CCc1c(F)ccc2cc(O)cc(-c3ncc4c(N5CCCOCC5)nc(OC[C@]56CCCN5[C@H](COC(=O)N5CCC(CN7CCC(c8ccc9c(c8)n(C)c(=O)n9C8CCC(=O)NC8=O)CC7)CC5)CC6)nc4c3F)c12` (stereo partly drawn) [Compound 423, ((3S,7aR)-7a-(((7-(8-ethyl-7-fluoro-3-hydroxynaphthalen-1-yl)-8-fluoro-4-(1,4-oxazepan-4-yl)pyrido[4,3-d]pyrimidin-2-yl)oxy)methyl)hexahydro-1H-pyrrolizin-3-yl)methyl 4-((4-(1-(2,6-dioxopiperidin-3-yl)-3-methyl-2-oxo-2,3-dihydro-1H-benzo[d]imidazol-5-yl)piperidin-1-yl)methyl)piperidine-1-carboxylate], for which the DC50 at KRAS is < 1 nM; at KRAS G12V (class symbols), < 10 nM; at KRAS G12D (class symbols) it was < 100 nM.

Turning to `CCc1c(F)ccc2cc(O)cc(-c3ncc4c(N5CCC[C@@](C)(O)C5)nc(OC[C@@]56CCCN5[C@H](COC(=O)N5CCC7(CCC(CN8CCC(c9ccc%10c(c9)n(C)c(=O)n%10C9CCC(=O)NC9=O)CC8)CC7)C5)CC6)nc4c3F)c12` (stereo partly drawn) [Compound 457, ((3S,7aS)-7a-(((7-(8-ethyl-7-fluoro-3-hydroxynaphthalen-1-yl)-8-fluoro-4-((R)-3-hydroxy-3-methylpiperidin-1-yl)pyrido[4,3-d]pyrimidin-2-yl)oxy)methyl)hexahydro-1H-pyrrolizin-3-yl)methyl 8-((4-(1-(2,6-dioxopiperidin-3-yl)-3-methyl-2-oxo-2,3-dihydro-1H-benzo[d]imidazol-5-yl)piperidin-1-yl)methyl)-2-azaspiro[4.5]decane-2-carboxylate], the DC50 on KRAS was < 1 nM; at KRAS G12V (class symbols), < 10 nM; at KRAS G12D (class symbols), < 100 nM.

With `C#Cc1c(F)ccc2cccc(-c3ncc4c(N5CCC[C@@](C)(O)C5)nc(OCC5(CN6CCN(CC7CCN(c8ccc9c(c8)C(=O)N(C8CCC(=O)NC8=O)C9=O)CC7)CC6)CC5)nc4c3F)c12` (stereo partly drawn) [Compound 55], the figures for the DC50 on KRAS, at KRAS G12V (class symbols) and at KRAS G12D (class symbols) were ≥ 10 nM, > 100 nM and < 100 nM, respectively.

As to `CCc1c(F)ccc2cc(O)cc(-c3ncc4c(N5CCC[C@@](C)(O)C5)nc(OC[C@@]56CCCN5[C@H](COC(=O)N5CCC7(CCC(N8CCC(c9ccc%10c(c9)n(C)c(=O)n%10C9CCC(=O)NC9=O)CC8)CC7)CC5)CC6)nc4c3F)c12` (stereo partly drawn) [Compound 465, ((3S,7aS)-7a-(((7-(8-ethyl-7-fluoro-3-hydroxynaphthalen-1-yl)-8-fluoro-4-((R)-3-hydroxy-3-methylpiperidin-1-yl)pyrido[4,3-d]pyrimidin-2-yl)oxy)methyl)hexahydro-1H-pyrrolizin-3-yl)methyl 9-(4-(1-(2,6-dioxopiperidin-3-yl)-3-methyl-2-oxo-2,3-dihydro-1H-benzo[d]imidazol-5-yl)piperidin-1-yl)-3-azaspiro[5.5]undecane-3-carboxylate], the DC50 at KRAS is < 1 nM; on KRAS G12V (class symbols), < 10 nM; on KRAS G12D (class symbols), < 100 nM.

For the molecule `CCc1c(F)ccc2cc(O)cc(-c3cc4nc(OC[C@@]56CCCN5[C@H](COC(=O)N5CCC7(CC5)CC(N5CCC(c8ccc9c(c8)n(C)c(=O)n9C8CCC(=O)NC8=O)CC5)C7)CC6)nc(N5CCC[C@@](C)(O)C5)c4cn3)c12` (stereo partly drawn) [Compound 461, ((3S,7aS)-7a-(((7-(8-ethyl-7-fluoro-3-hydroxynaphthalen-1-yl)-4-((R)-3-hydroxy-3-methylpiperidin-1-yl)pyrido[4,3-d]pyrimidin-2-yl)oxy)methyl)hexahydro-1H-pyrrolizin-3-yl)methyl 2-(4-(1-(2,6-dioxopiperidin-3-yl)-3-methyl-2-oxo-2,3-dihydro-1H-benzo[d]imidazol-5-yl)piperidin-1-yl)-7-azaspiro[3.5]nonane-7-carboxylate], the DC50 is < 1 nM at KRAS, < 10 nM at KRAS G12V (class symbols) and < 100 nM on KRAS G12D (class symbols).

As for `CCc1c(F)ccc2cc(O)cc(-c3ncc4c(N5CCC[C@@](C)(O)C5)nc(OC[C@]56CCCN5[C@H](CN5CCC(OCCCc7ccc8c(c7)n(C)c(=O)n8C7CCC(=O)NC7=O)CC5)CC6)nc4c3F)c12` (stereo partly drawn) [Compound 444, 3-(5-(3-((1-(((3S,7aR)-7a-(((7-(8-Ethyl-7-fluoro-3-hydroxynaphthalen-1-yl)-8-fluoro-4-((R)-3-hydroxy-3-methylpiperidin-1-yl)pyrido[4,3-d]pyrimidin-2-yl)oxy)methyl)hexahydro-1H-pyrrolizin-3-yl)methyl)piperidin-4-yl)oxy)propyl)-3-methyl-2-oxo-2,3-dihydro-1H-benzo[d]imidazol-1-yl) piperidine-2,6-dione], the DC50 at KRAS is 1 to 10 nM; at KRAS G12V (numeric bounds), > 78.5 nM; on KRAS G12D (class symbols) it was < 100 nM.

As for `CCc1c(F)ccc2cc(O)cc(-c3ncc4c(N5CCCCCC5)nc(OC[C@@]56CCCN5[C@H](COC(=O)N5CCC7(CC5)CC(N5CCC(c8ccc9c(c8)n(C)c(=O)n9C8CCC(=O)NC8=O)CC5)C7)CC6)nc4c3F)c12` (stereo partly drawn) [Compound 344, ((3S,7aS)-7a-(((4-(azepan-1-yl)-7-(8-ethyl-7-fluoro-3-hydroxynaphthalen-1-yl)-8-fluoropyrido[4,3-d]pyrimidin-2-yl)oxy)methyl)hexahydro-1H-pyrrolizin-3-yl)methyl 2-(4-(1-(2,6-dioxopiperidin-3-yl)-3-methyl-2-oxo-2,3-dihydro-1H-benzo[d]imidazol-5-yl)piperidin-1-yl)-7-azaspiro[3.5]nonane-7-carboxylate], the figures for the DC50 on KRAS, at KRAS G12V (class symbols) and on KRAS G12D (numeric bounds given in place of class symbols) were 1 to 10 nM, > 100 nM and > 100 nM, respectively.

For `CCc1c(F)ccc2cc(O)cc(-c3ncc4c(N5CCC[C@@](C)(O)C5)nc(OC[C@@]56CCCN5[C@H](COC(=O)N5CCC7(CC5)CCN(C5CCN(c8ccc9c(c8)n(C)c(=O)n9C8CCC(=O)NC8=O)CC5)C7)CC6)nc4c3F)c12` (stereo partly drawn) [Compound 456, ((3S,7aS)-7a-(((7-(8-ethyl-7-fluoro-3-hydroxynaphthalen-1-yl)-8-fluoro-4-((R)-3-hydroxy-3-methylpiperidin-1-yl)pyrido[4,3-d]pyrimidin-2-yl)oxy)methyl)hexahydro-1H-pyrrolizin-3-yl)methyl 2-(1-(1-(2,6-dioxopiperidin-3-yl)-3-methyl-2-oxo-2,3-dihydro-1H-benzo[d]imidazol-5-yl)piperidin-4-yl)-2,8-diazaspiro[4.5]decane-8-carboxylate], the DC50 on KRAS is 1 to 10 nM; at KRAS G12V (class symbols), < 10 nM; on KRAS G12D (class symbols), < 100 nM.

In the case of `C#Cc1c(F)ccc2cc(O)cc(-c3ccc4c(N5CCC[C@@](C)(O)C5)nc(OCC5(CN6CCC(CN7CCC(c8ccc9c(c8)n(C)c(=O)n9C8CCC(=O)NC8=O)CC7)CC6)CC5)nc4c3F)c12` (stereo partly drawn) [Compound 13], the DC50 at KRAS was < 1 nM; on KRAS G12V (class symbols), < 10 nM; on KRAS G12D (class symbols), < 100 nM.

For the origin of these results see patent publication US12599672B2, “KRAS proteolysis targeting chimeras” (PAQ Therapeutics Inc., priority 2023, dated 2026).
